As a reminder, the inhibition is the share of the control response that was lost under treatment. In general, solubility refers to the concentration that dissolves in the medium under given conditions. A low value points to little dissolved substance.

“Also recorded” adds a separate entry of the source. Some results are limits rather than exact numbers.

This is an account of results in publication PMC8311653, “Design, Synthesis, In Vitro and In Vivo Characterization of Selective NKCC1 Inhibitors for the Treatment of Core Symptoms in Down Syndrome” (Journal of Medicinal Chemistry, 2021).

In one series the target is T1, NKCC1 (Homo sapiens, UniProt P55011).
T1 construct: host or cells: HEK293
T1 sequence (P55011 1-1212): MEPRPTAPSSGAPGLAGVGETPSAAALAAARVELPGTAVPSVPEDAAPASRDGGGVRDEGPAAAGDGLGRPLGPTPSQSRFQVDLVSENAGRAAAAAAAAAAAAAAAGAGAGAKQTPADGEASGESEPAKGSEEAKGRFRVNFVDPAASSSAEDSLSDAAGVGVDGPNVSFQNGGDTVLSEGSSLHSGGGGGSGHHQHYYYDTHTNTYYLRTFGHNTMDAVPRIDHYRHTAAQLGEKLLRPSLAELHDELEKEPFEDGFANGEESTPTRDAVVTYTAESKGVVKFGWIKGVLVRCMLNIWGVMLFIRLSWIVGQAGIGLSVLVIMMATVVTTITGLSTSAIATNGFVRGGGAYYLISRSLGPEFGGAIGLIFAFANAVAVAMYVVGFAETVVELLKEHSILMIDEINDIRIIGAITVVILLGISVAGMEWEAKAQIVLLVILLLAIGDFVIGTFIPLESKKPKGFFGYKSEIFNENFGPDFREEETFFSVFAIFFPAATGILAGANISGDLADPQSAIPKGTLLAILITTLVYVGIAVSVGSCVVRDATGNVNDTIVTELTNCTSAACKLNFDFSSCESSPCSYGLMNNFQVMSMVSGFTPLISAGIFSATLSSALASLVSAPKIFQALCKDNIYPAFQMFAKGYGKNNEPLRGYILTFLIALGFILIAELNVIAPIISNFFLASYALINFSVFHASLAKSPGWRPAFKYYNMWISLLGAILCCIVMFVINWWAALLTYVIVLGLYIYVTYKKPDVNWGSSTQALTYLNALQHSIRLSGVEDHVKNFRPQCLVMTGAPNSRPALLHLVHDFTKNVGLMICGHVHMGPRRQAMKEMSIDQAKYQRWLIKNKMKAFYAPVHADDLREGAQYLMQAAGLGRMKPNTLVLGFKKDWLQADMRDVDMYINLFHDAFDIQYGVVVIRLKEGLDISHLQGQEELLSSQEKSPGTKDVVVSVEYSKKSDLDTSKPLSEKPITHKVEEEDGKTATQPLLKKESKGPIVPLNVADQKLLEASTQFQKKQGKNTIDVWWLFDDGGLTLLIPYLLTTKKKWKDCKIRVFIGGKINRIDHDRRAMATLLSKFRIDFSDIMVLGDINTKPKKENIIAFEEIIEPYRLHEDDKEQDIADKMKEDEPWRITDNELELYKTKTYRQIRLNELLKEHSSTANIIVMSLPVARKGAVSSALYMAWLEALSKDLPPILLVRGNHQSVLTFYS
The experiment in a line: Cl- influx assay in NKCC1-transfected HEK293 cells. It counts as cell-based. To be noted: for Inhibition 10 μM Cl- influx (%) / Inhibition 100 μM Cl- influx (%): NKCC1-transfected HEK293 cells; for inhibition at 100 µM: HEK293, read-out: Inhibition 100 μM Cl- influx (%); for inhibition at 10 µM: HEK293, read-out: Inhibition 10 μM Cl- influx (%). The procedure: HEK293 cells were cultured in Dulbecco’s modified Eagle’s medium (DMEM) supplemented with 10% fetal bovine serum, 1% L-glutamine, 100 U/mL penicillin, and 100 μg/mL streptomycin and maintained at 37 °C in a 5% CO2 humidified atmosphere. To assess NKCC1 and NKCC2 activity (Cl^– influx assay), 3 million HEK cells were plated in a 10 cm cell-culture dish and transfected with a transfection mixture comprising 5 mL of DMEM, 4 mL of Opti-MEM, 8 μg of DNA plasmid coding for NKCC1 (PRK-NKCC1 obtained from Medical Research Council and the University of Dundee), NKCC2 (OriGene plasmid #RC216145) subcloned in PRK5 plasmid, or mock control (empty vector), together with 8 μg of a plasmid coding for the Cl^–-sensitive variant of the membrane-targeted fluorescent protein YFP, mbYFPQS (Addgene plasmid #80742),[53] and 32 μL of Lipofectamin 2000. To assess KCC2 activity (Tl influx assay), cells were transfected with 8 μg of KCC2[54] subcloned in the PRK5 plasmid or mock control (empty vector) and 16 μL of Lipofectamin 2000. After 4 h, the cells were collected and plated in 96-well black-walled, clear-bottomed plates at a density of 2.5 × 10^4. After 48 h, cells were used for the Cl^– or Tl influx assays. All reagents were purchased from Life Technologies, unless otherwise specified.
Transfected cells were treated with 10 μM or 100 μM bumetanide (as positive controls), DMSO (as the negative control), or with each of our compounds in 100 μL/well of a Cl^–-free hypotonic solution (67.5 mM Na^+ gluconate, 2.5 mM K^+ gluconate, 15 mM HEPES pH 7.4, 50 mM glucose, 1 mM Na2HPO4, 1 mM NaH2PO4, 1 mM MgSO4, and 1 mM CaSO4). After 30 min of incubation, plates were loaded into a Victor 3V (PerkinElmer) multiplate reader equipped with an automatic liquid injector system, and fluorescence of Cl^–-sensitive mbYFPQS was recorded with excitation at 485 nm and emission at 535 nm. For each well, fluorescence was first recorded for 20 s of the baseline and for 60 s after delivery of a NaCl concentrated solution (74 mM final concentration in the assay well). Fluorescence of Cl^–-sensitive mbYFPQS is inversely correlated to the intracellular Cl^– concentration;[53] therefore, chloride influx into the cells determined a decrease in mbYFPQS fluorescence. To represent the fluorescent traces in time, we normalized the fluorescence value for each time point to the average of the fluorescence value of the first 20 s of the baseline (ΔF/F0). To quantify the average effects as represented by the bar plots, we expressed the decrease in fluorescence upon NaCl application as the average of the last 10 s of ΔF/F0 normalized traces. Moreover, for each experiment, to account for the contribution of Cl^– changes that were dependent on transporters/exchangers other than NKCC1 or NKCC2, we subtracted the value of the last 10 s of ΔF/F0 normalized traces obtained from mock-transfected cells (either control or treated) from the respective ΔF/F0 value obtained from the cells transfected with NKCC1 or NKCC2. We then presented in the figures all the data as a percentage of the fluorescence decrease versus the value of the control DMSO.

Series [1] in a line: Aqueous kinetic solubility in PBS pH 7.4. The class given is physicochemical. To be noted: phosphate buffered saline (PBS); aqueous kinetic solubility from 10 mM DMSO solution in PBS pH 7.4; target concentration 250 μM (final DMSO 2.5%). The procedure:
1. Aqueous kinetic solubility.
30 µL aliquots of 10 mM DMSO stock solution of the test compound were incubated in Phosphate
Buffered Saline (PBS) at pH 7.4 at 25°C for 24h. After centrifugation the dissolved compound in the
supernatant was quantified by LC-MS/MS.
Aqueous kinetic solubility was determined by UV quantification at
215 nm. […]

As to `CC(C)(C)CCNc1ccc([N+](=O)[O-])cc1S(N)(=O)=O` [Compound 8, 2-(3,3-Dimethylbutylamino)-5-nitro-benzenesulfonamide], at NKCC1, the “Inhibition 10 μM Cl- influx (%)” value was “Inactive” and the inhibition at 100 µM came to 14.5 ± 10.6%.
For `CCCCNc1ccc([N+](=O)[O-])cc1S(=O)(=O)NC` [Compound 9, 2-(Butylamino)-N-methyl-5-nitro-benzenesulfonamide], at NKCC1, the “Inhibition 10 μM Cl- influx (%)” value was “Inactive” and the inhibition at 100 µM was determined as 13.3 ± 11.4%.
Consider `CCCCCCCCNc1ccc([N+](=O)[O-])cc1S(=O)(=O)NC` [Compound 10, N-Methyl-5-nitro-2-(octylamino)benzenesulfonamide], for which, at NKCC1, the “Inhibition 10 μM Cl- influx (%)” value was “Inactive” and the “Inhibition 100 μM Cl- influx (%)” value is on record as “Inactive”.
With `CCCCNc1ccc([N+](=O)[O-])cc1S(=O)(=O)N(C)C` [Compound 11, 2-(Butylamino)-N,N-dimethyl-5-nitro-benzenesulfonamide], on NKCC1, the “Inhibition 10 μM Cl- influx (%)” value is “Inactive” and the inhibition at 100 µM came out at 15.2 ± 9.6%.
`CCCCCCCCNc1ccc([N+](=O)[O-])cc1S(=O)(=O)N(C)C` [Compound 13, N,N-Dimethyl-5-nitro-2-(octylamino)benzenesulfonamide]: at NKCC1, the “Inhibition 10 μM Cl- influx (%)” value is given as “Inactive” and the “Inhibition 100 μM Cl- influx (%)” value is “Inactive”.
Take `CN(C)S(=O)(=O)c1cc([N+](=O)[O-])ccc1NCCC(C)(C)C` [Compound 14, 2-(3,3-Dimethylbutylamino)-N,N-dimethyl-5-nitro-benzenesulfonamide]: on NKCC1, the inhibition at 10 µM was determined as 10 ± 4.9% and the inhibition at 100 µM came to 17 ± 11.9%.
On to `CCCCNc1ccc(C(=O)O)cc1S(N)(=O)=O` [Compound 15, 4-(Butylamino)-3-sulfamoyl-benzoic Acid], for which, on NKCC1, the “Inhibition 10 μM Cl- influx (%)” value is “Inactive” and the inhibition at 100 µM stood at 6.4 ± 5.3%.
Take `CC(C)(C)CCNc1ccc(C(=O)O)cc1S(N)(=O)=O` [Compound 18, 4-(3,3-Dimethylbutylamino)-3-sulfamoyl-benzoic Acid]: at NKCC1, the “Inhibition 10 μM Cl- influx (%)” value is reported as “Inactive” and the inhibition at 100 µM turned out to be 5.1 ± 4.9%.
Take `CCCCNc1ccc(C(=O)O)cc1S(=O)(=O)NC` [Compound 19, 4-(Butylamino)-3-(-N-methylsulfamoyl)benzoic Acid]: on NKCC1, the inhibition at 10 µM was found to be 6.4 ± 2.1% and the inhibition at 100 µM was found to be 6.2 ± 5.7%.
In the case of `CNS(=O)(=O)c1cc(C(=O)O)ccc1NCCC(C)(C)C` [Compound 22, 4-(-N-3,3-Dimethylbutylamino)-3-(methylsulfamoyl)benzoic Acid], on NKCC1, the “Inhibition 10 μM Cl- influx (%)” value is “Inactive” and the inhibition at 100 µM stood at 2.6 ± 3.5%.
In the case of `CCCCNc1ccc(C(=O)O)cc1S(=O)(=O)N(C)C` [Compound 23, 4-(Butylamino)-3-(-N,N-dimethylsulfamoyl)benzoic Acid], at NKCC1, the inhibition at 10 µM turned out to be 2.6 ± 2.8% and the inhibition at 100 µM is 15.6 ± 5.4%.
`COCCCCCCNc1ccc(C(=O)O)cc1S(=O)(=O)N(C)C` [Compound 31, 3-(-N,N-Dimethylsulfamoyl)-4-(6-methoxyhexylamino)benzoic Acid]: on NKCC1, the “Inhibition 10 μM Cl- influx (%)” value is recorded as “did not show any NKCC1 inhibition; also recorded: Inactive” and the “Inhibition 100 μM Cl- influx (%)” value is “did not show any NKCC1 inhibition; also recorded: Inactive”. Moreover, in series [1], the solubility at 24 h was over 250 µM.
